Data published in publication PMC5617480 (Oncotarget, 2017).

System: telomeres/telomerase-related genes
Assay: RT-qPCR array (Telomeres & Telomerase PCR Array)
Type: cell-based, human
Conditions: BEL-7404 cells, 10 μM, 24 h
Procedure: To determine the mechanism(s), we further explored the effect of complex 6 on the expression of telomeres/telomerase-related genes (such as TRF1, hTERT, TRF2, c-myc, and 53BP1) in the BEL-7404 model. Firstly, RT-qPCR array was used to determine mRNA levels of telomeres/telomerase-related gene expressions in BEL-7404 cells when the cells were treated with complex 6. […] Secondly, these telomerase-related genes were determined by western blot. […]
In addition, RNA
30.0 min at room temperature in the dark. Finally, the extraction, RT-PCR, and the selective binding to G4s by BEL-7404 cell cycle was determined with FACS Calibur complexes 4–6 was according to the our previous reported flow cytometer (BD) and analyzed using Cell Quest. […]
ME). Gene expression by a panel of genes for RT-Determination of caspase-3/9 activity by flow qPCR array cytometric analysis Differential expression of telomeres/telomerase-related genes was analyzed using the Telomeres &
Colorimetric analysis of caspase-9 and caspase-3 Telomerase PCR Array (RT2 Profiler™ PCR Array Human activation in BEL-7404 cells exposed to 10 μM of Telomeres & Telomerase, PAHS-010Z, SABioscience, complexes 4–6 for 24.0 h were carried out using the USA) obtained from Kangchen Bio-tech, Shanghai, China.
CaspGLOW™ Fluorescein Active Caspase-9/Caspase-3 RNA was extracted according to standard protocols and Staining Kit. The BEL-7404 cells treated with complexes converted to first strand cDNA using the RT2 First Strand 4–6 and the controlled BEL-7404 cells were harvested Kit. The template was added to an instrument specific, from RPMI 1640 medium with 10% FBS, in a density of ready-to-use RT2 SYBR Green qPCR Master Mix. The 1.0 × 10^6 cells per milliliter. These cells were washed with resulting mixture was added to the wells (25.0 μL/well) of PBS and centrifuged for 3 times, and were then mixed the PCR Array plate containing the telomere maintenance, with 500 μL culture. 1.0 μL of FITC-LEHD-FMK or/telomere-associated complexes, telomere regulation and FITC-DEVD-FMK were consequently added and other genes associated with telomeres gene-specific primer incubated for 2.0 h at 37 °C with 5% CO2. The BEL- sets (25 μL for 96-well plates) and PCR was performed.
7404 cells were then determined with a FACS AriaII flow The threshold cycle (Ct) values for all the genes on each cytometer equipped with a 488 nm argon laser. Results PCR Array were calculated using the instrument specific were represented as the percent change on the activity software and the fold-changes in gene expression for pair-comparing with the control group. wise comparison were calculated using the 2-ΔCt method.
Western blot assay TRAP Assay (TRAP-silver staining assay)
The BEL-7404 Cells were treated with the same as Each telomerase extract was prepared from BEL-the above for 24.0 h with complexes 4–6 (10 μM), and 7404 cells. A modified version of the TRAP assay was total proteins were extracted by lysis buffer RIPA. Then used. The PCR was performed in a final […] use BCA protein assay to measure concentrations of each reaction volume composed of reaction mix ([…]) sample. After electrophoresis on 10% PAGE-SDS gel containing pH 8.0 Tris-HCl (20.0 mM), deoxynucleotide and blotting, anti-mutp53, 53BP1, TRF1, TRF2, hTERT, triphosphates ([…]), BSA (20 mg/mL), primer

Substance: cis-[PtCl2(S-(–)-FOA)] [complex 6]
- Fold Change, ABL1: 0.80
- Fold Change, ACD: 1.16
- Fold Change, ACTB: 0.76
- Fold Change, AKT1: 0.77
- Fold Change, ATM: 1.08
- Fold Change, ATP5C1: 1.19
- Fold Change, B2M: 1.15
- Fold Change, BCL2: 0.76
- Fold Change, BLM: 1.21
- Fold Change, CDK2: 0.80
- Fold Change, CHEK1: 1.13
- Fold Change, CHEK2: 1.23
- Fold Change, DCLRE1B: 0.81
- Fold Change, DCLRE1C: 1.20
- Fold Change, DKC1: 1.14
- Fold Change, EGF: 1.11
- Fold Change, EME1: 1.26
- Fold Change, ERCC1: 1.00
- Fold Change, ERCC4: 1.22
- Fold Change, GAPDH: 0.97
- Fold Change, GAR1: 0.95
- Fold Change, HAT1: 1.13
- Fold Change, HNRNPA2B1: 1.06
- Fold Change, HNRNPD: 0.95
- Fold Change, HPRT1: 1.14
- Fold Change, HSP90AA1: 1.35
- Fold Change, HSPA1L: 1.65
- Fold Change, IGF1: 0.02
- Fold Change, KRAS: 0.88
- Fold Change, KRIT1: 1.12
- Fold Change, MEN1: 1.14
- Fold Change, MRE11A: 1.41
- Fold Change, MSH2: 0.90
- Fold Change, MSH3: 0.66
- Fold Change, MUS81: 1.55
- Fold Change, MYC: 0.75
- Fold Change, NBN: 0.79
- Fold Change, NCL: 1.04
- Fold Change, NHP2: 1.46
- Fold Change, NOP10: 0.82
- Fold Change, OBFC1: 1.32
- Fold Change, PARP1: 1.02
- Fold Change, PAX8: 9.91
- Fold Change, PIF1: 0.84
- Fold Change, PINX1: 1.13
- Fold Change, PLK1: 0.72
- Fold Change, POT1: 0.87
- Fold Change, PPARG: 1.08
- Fold Change, PPP2R1A: 0.88
- Fold Change, PPP2R1B: 0.68
- Fold Change, PRKCA: 1.12
- Fold Change, PRKCB: 0.48
- Fold Change, PRKDC: 0.83
- Fold Change, PTGES3: 1.07
- Fold Change, PURA: 1.07
- Fold Change, RAD17: 1.11
- Fold Change, RAD50: 1.44
- Fold Change, RAP1A: 0.90
- Fold Change, RAPGEF1: 0.97
- Fold Change, RASSF1: 1.26
- Fold Change, RB1: 0.59
- Fold Change, RFC1: 1.33
- Fold Change, RIF1: 1.67
- Fold Change, RPLP0: 1.05
- Fold Change, RTEL1: 0.39
- Fold Change, SART1: 1.50
- Fold Change, SIRT2: 0.84
- Fold Change, SIRT6: 1.89
- Fold Change, SLX4: 0.87
- Fold Change, SMAD3: 0.65
- Fold Change, SMG6: 1.05
- Fold Change, SP1: 0.70
- Fold Change, SSB: 1.14
- Fold Change, SUN1: 1.04
- Fold Change, TEP1: 1.73
- Fold Change, TERF1: 1.39
- Fold Change, TERF2: 0.99
- Fold Change, TERF2IP: 1.47
- Fold Change, TERT: 0.89
- Fold Change, TGFB1: 1.46
- Fold Change, TINF2: 1.14
- Fold Change, TNKS: 1.12
- Fold Change, TNKS2: 1.02
- Fold Change, TP53: 1.45
- Fold Change, TP53BP1: 1.18
- Fold Change, TPP1: 1.07
- Fold Change, WRAP53: 0.94
- Fold Change, XRCC5: 0.76
- Fold Change, XRCC6: 1.15
- Fold Up-or Down-Regulation, ABL1: -1.25
- Fold Up-or Down-Regulation, ACD: 1.16
- Fold Up-or Down-Regulation, ACTB: -1.32
- Fold Up-or Down-Regulation, AKT1: -1.30
- Fold Up-or Down-Regulation, ATM: 1.08
- Fold Up-or Down-Regulation, ATP5C1: 1.19
- Fold Up-or Down-Regulation, B2M: 1.15
- Fold Up-or Down-Regulation, BCL2: -1.32
- Fold Up-or Down-Regulation, BLM: 1.21
- Fold Up-or Down-Regulation, CDK2: -1.24
- Fold Up-or Down-Regulation, CHEK1: 1.13
- Fold Up-or Down-Regulation, CHEK2: 1.23
- Fold Up-or Down-Regulation, DCLRE1B: -1.24
- Fold Up-or Down-Regulation, DCLRE1C: 1.20
- Fold Up-or Down-Regulation, DKC1: 1.14
- Fold Up-or Down-Regulation, EGF: 1.11
- Fold Up-or Down-Regulation, EME1: 1.26
- Fold Up-or Down-Regulation, ERCC1: -1.00
- Fold Up-or Down-Regulation, ERCC4: 1.22
- Fold Up-or Down-Regulation, GAPDH: -1.04
- Fold Up-or Down-Regulation, GAR1: -1.05
- Fold Up-or Down-Regulation, HAT1: 1.13
- Fold Up-or Down-Regulation, HNRNPA2B1: 1.06
- Fold Up-or Down-Regulation, HNRNPD: -1.06
- Fold Up-or Down-Regulation, HPRT1: 1.14
- Fold Up-or Down-Regulation, HSP90AA1: 1.35
- Fold Up-or Down-Regulation, HSPA1L: 1.65
- Fold Up-or Down-Regulation, IGF1: -57.88
- Fold Up-or Down-Regulation, KRAS: -1.13
- Fold Up-or Down-Regulation, KRIT1: 1.12
- Fold Up-or Down-Regulation, MEN1: 1.14
- Fold Up-or Down-Regulation, MRE11A: 1.41
- Fold Up-or Down-Regulation, MSH2: -1.11
- Fold Up-or Down-Regulation, MSH3: -1.51
- Fold Up-or Down-Regulation, MUS81: 1.55
- Fold Up-or Down-Regulation, MYC: -1.33
- Fold Up-or Down-Regulation, NBN: -1.27
- Fold Up-or Down-Regulation, NCL: 1.04
- Fold Up-or Down-Regulation, NHP2: 1.46
- Fold Up-or Down-Regulation, NOP10: -1.22
- Fold Up-or Down-Regulation, OBFC1: 1.32
- Fold Up-or Down-Regulation, PARP1: 1.02
- Fold Up-or Down-Regulation, PAX8: 9.91
- Fold Up-or Down-Regulation, PIF1: -1.19
- Fold Up-or Down-Regulation, PINX1: 1.13
- Fold Up-or Down-Regulation, PLK1: -1.39
- Fold Up-or Down-Regulation, POT1: -1.14
- Fold Up-or Down-Regulation, PPARG: 1.08
- Fold Up-or Down-Regulation, PPP2R1A: -1.13
- Fold Up-or Down-Regulation, PPP2R1B: -1.46
- Fold Up-or Down-Regulation, PRKCA: 1.12
- Fold Up-or Down-Regulation, PRKCB: -2.06
- Fold Up-or Down-Regulation, PRKDC: -1.20
- Fold Up-or Down-Regulation, PTGES3: 1.07
- Fold Up-or Down-Regulation, PURA: 1.07
- Fold Up-or Down-Regulation, RAD17: 1.11
- Fold Up-or Down-Regulation, RAD50: 1.44
- Fold Up-or Down-Regulation, RAP1A: -1.11
- Fold Up-or Down-Regulation, RAPGEF1: -1.03
- Fold Up-or Down-Regulation, RASSF1: 1.26
- Fold Up-or Down-Regulation, RB1: -1.70
- Fold Up-or Down-Regulation, RFC1: 1.33
- Fold Up-or Down-Regulation, RIF1: 1.67
- Fold Up-or Down-Regulation, RPLP0: 1.05
- Fold Up-or Down-Regulation, RTEL1: -2.58
- Fold Up-or Down-Regulation, SART1: 1.50
- Fold Up-or Down-Regulation, SIRT2: -1.19
- Fold Up-or Down-Regulation, SIRT6: 1.89
- Fold Up-or Down-Regulation, SLX4: -1.15
- Fold Up-or Down-Regulation, SMAD3: -1.55
- Fold Up-or Down-Regulation, SMG6: 1.05
- Fold Up-or Down-Regulation, SP1: -1.43
- Fold Up-or Down-Regulation, SSB: 1.14
- Fold Up-or Down-Regulation, SUN1: 1.04
- Fold Up-or Down-Regulation, TEP1: 1.73
- Fold Up-or Down-Regulation, TERF1: 1.39
- Fold Up-or Down-Regulation, TERF2: -1.01
- Fold Up-or Down-Regulation, TERF2IP: 1.47
- Fold Up-or Down-Regulation, TERT: -1.12
- Fold Up-or Down-Regulation, TGFB1: 1.46
- Fold Up-or Down-Regulation, TINF2: 1.14
- Fold Up-or Down-Regulation, TNKS: 1.12
- Fold Up-or Down-Regulation, TNKS2: 1.02
- Fold Up-or Down-Regulation, TP53: 1.45
- Fold Up-or Down-Regulation, TP53BP1: 1.18
- Fold Up-or Down-Regulation, TPP1: 1.07
- Fold Up-or Down-Regulation, WRAP53: -1.06
- Fold Up-or Down-Regulation, XRCC5: -1.32
- Fold Up-or Down-Regulation, XRCC6: 1.15
